Results on 19 compounds are retold here after US9999622B2, “Pyrazolothiazole compound and medicine comprising same” (NIPPON SHINYAKU CO., LTD., priority 2014, dated 2018).

Holding throughout (type): biochemical
One assay concerns the target T1, JAK3 (Homo sapiens, UniProt P52333).
T1 construct: purchased Carna Biosciences, Inc
T1 sequence (P52333 1-1124): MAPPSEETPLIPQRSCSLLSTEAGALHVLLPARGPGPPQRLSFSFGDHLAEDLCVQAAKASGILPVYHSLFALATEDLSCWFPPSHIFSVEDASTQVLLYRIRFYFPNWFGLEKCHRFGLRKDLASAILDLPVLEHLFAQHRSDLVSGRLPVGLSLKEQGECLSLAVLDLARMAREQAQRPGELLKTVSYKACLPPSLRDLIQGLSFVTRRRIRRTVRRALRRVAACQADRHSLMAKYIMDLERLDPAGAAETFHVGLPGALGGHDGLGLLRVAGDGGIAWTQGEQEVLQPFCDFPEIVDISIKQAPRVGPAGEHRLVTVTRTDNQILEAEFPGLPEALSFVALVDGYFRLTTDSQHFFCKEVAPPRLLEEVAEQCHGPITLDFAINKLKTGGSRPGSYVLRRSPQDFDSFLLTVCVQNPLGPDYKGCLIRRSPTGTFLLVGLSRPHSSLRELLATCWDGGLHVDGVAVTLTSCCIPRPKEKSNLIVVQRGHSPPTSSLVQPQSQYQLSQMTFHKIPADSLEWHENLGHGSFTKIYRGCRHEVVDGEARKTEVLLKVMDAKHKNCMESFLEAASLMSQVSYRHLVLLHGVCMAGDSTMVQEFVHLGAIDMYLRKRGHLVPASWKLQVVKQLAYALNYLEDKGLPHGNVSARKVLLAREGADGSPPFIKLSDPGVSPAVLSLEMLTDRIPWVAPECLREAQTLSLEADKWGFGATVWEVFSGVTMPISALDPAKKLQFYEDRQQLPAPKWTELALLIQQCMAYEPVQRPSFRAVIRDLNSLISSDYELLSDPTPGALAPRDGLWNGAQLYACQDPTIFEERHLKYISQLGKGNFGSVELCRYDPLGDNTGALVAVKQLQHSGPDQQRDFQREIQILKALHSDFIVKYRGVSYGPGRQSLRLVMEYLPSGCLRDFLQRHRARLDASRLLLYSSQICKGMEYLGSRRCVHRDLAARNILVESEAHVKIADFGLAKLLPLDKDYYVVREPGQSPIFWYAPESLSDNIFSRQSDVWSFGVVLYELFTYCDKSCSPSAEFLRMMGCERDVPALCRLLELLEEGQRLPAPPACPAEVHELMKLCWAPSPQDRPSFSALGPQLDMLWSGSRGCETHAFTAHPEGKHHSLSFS
In words: JAK tyrosine kinase inhibitory activity in the presence of 1 mM ATP (ELISA), JAK3. The essentials:
(§1)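 ELISA read-out: HRP-labelled anti-phosphotyrosine antibody with TMB, absorbance 450 nm, after 1 h kinase reaction at 30 °C in presence of 1 mM ATP. Kinase diluted to 7.5 nM (JAK1) or 0.75 nM (JAK2/JAK3) in Tris-HCl pH 7.5 buffer with DTT; compounds tested in duplicate.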
(An ELISA detects its analyte on a solid surface through an enzyme-linked reagent.)

Another assay deals with T2, JAK1 (Homo sapiens, UniProt P23458).
T2 construct: purchased Carna Biosciences, Inc
In words: JAK tyrosine kinase inhibitory activity in the presence of 1 mM ATP (ELISA), JAK1. The method, boiled down:
as §1

The target of the next assay is T3, JAK2 (Homo sapiens, UniProt O60674).
T3 construct: purchased Carna Biosciences, Inc
In words: JAK tyrosine kinase inhibitory activity in the presence of 1 mM ATP (ELISA), JAK2. The essentials: as §1

Molecules are shown by their SMILES.

T2 sequence (P23458 whole entry): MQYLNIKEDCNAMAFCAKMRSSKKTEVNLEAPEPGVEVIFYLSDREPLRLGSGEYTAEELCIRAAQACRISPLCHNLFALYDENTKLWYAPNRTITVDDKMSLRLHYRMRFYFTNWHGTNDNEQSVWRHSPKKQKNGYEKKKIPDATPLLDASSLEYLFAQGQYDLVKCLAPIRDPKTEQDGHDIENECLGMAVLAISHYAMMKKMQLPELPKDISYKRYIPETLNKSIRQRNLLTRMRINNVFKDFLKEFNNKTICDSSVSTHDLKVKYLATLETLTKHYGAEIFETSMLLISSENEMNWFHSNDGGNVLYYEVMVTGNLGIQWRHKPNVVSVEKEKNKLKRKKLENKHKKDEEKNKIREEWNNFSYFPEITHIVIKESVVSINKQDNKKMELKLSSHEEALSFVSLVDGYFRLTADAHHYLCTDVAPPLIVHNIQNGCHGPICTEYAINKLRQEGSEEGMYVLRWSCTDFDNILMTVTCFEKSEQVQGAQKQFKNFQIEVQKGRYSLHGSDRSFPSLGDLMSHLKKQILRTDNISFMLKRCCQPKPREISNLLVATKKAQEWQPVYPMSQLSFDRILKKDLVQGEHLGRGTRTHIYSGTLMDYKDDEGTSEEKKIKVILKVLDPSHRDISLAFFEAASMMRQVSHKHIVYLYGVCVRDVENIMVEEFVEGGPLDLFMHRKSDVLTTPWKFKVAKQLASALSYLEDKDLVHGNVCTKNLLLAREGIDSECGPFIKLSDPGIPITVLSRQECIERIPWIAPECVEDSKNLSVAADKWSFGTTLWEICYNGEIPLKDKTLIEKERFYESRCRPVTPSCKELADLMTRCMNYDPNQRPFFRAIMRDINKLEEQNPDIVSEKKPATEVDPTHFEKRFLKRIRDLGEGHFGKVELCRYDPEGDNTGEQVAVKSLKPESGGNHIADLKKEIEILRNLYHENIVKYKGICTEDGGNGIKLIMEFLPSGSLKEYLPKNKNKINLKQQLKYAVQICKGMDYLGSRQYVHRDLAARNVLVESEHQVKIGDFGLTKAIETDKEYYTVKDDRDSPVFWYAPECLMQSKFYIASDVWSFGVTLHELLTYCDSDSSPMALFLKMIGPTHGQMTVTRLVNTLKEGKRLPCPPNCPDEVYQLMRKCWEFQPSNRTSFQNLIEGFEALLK
T3 sequence (O60674 whole entry): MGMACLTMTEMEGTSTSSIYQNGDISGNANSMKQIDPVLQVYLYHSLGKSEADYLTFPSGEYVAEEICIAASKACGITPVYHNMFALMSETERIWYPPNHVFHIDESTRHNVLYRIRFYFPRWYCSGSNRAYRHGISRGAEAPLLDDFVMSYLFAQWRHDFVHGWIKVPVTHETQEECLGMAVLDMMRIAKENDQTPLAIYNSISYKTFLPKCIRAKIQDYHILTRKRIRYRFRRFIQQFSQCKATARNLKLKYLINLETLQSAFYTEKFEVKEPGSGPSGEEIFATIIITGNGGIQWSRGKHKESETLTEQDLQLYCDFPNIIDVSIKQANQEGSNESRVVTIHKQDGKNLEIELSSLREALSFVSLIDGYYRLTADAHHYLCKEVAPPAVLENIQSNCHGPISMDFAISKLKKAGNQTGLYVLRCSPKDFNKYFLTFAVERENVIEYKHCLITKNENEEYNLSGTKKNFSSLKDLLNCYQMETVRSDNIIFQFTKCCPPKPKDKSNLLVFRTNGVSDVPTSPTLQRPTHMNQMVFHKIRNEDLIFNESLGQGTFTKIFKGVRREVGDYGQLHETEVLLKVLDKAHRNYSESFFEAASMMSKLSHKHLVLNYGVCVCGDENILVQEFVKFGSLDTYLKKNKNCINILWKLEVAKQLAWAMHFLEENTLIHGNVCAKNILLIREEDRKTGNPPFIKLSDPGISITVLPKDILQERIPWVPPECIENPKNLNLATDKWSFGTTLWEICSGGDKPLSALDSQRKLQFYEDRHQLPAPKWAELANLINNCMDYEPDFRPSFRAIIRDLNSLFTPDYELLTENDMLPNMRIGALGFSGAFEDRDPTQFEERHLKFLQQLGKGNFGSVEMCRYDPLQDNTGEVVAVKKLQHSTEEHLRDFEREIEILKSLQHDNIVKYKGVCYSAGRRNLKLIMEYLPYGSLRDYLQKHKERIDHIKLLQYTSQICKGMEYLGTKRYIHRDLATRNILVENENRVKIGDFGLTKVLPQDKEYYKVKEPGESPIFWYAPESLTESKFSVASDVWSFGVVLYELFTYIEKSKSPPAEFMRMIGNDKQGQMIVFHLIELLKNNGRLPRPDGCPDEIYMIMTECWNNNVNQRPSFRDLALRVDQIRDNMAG

`CC(C)C(=O)NC1CCN(C(=O)c2cc(NC(C)(C)C)nc(-c3cnn4ccsc34)n2)CC1` [Example 69, N-(1-{[6-(tert-Butylamino)-2-(pyrazolo[5,1-b][1,3]thiazol-7-yl)pyrimidin-4-yl]carbonyl}piperidin-4-yl)-2-methylpropanamide]: the IC50 (as a rule, the concentration needed to halve the response being measured) worked out at 5700 nM at JAK3, 810 nM on JAK1 and 3500 nM on JAK2.
Regarding `CCOC(=O)NC1CCN(C(=O)c2cc(NC(C)(C)C)nc(-c3cnn4ccsc34)n2)CC1` [Example 71, Ethyl (1-{[6-(tert-butylamino)-2-(pyrazolo[5,1-b][1,3]thiazol-7-yl)pyrimidin-4-yl]carbonyl}piperidin-4-yl)carbamate], the values for the IC50 at JAK3, at JAK1 and on JAK2 were 4000 nM, 200 nM and 3700 nM, respectively.
For `CC(C)(C)Nc1cc(C(=O)N2CCC(Nc3ccccn3)CC2)nc(-c2cnn3ccsc23)n1` [Example 72, [6-(tert-Butylamino)-2-(pyrazolo[5,1-b][1,3]thiazol-7-yl)pyrimidin-4-yl][4-(pyridin-2-ylamino)piperidin-1-yl]methanone], the 50% inhibitory concentration (IC50) stood at 5900 nM on JAK3, 310 nM on JAK1 and 6100 nM at JAK2.
The matching figures for `CC(C)(C)Nc1cc(C(=O)N2CCC(Nc3nccs3)CC2)nc(-c2cnn3ccsc23)n1` [Example 75, [6-(tert-Butylamino)-2-(pyrazolo[5,1-b][1,3]thiazol-7-yl)pyrimidin-4-yl][4-(1,3-thiazol-2-ylamino)piperidin-1-yl]methanone]: 4800 nM, 150 nM and 930 nM.
Take `COC(=O)NC1CCN(C(=O)c2cc(N[C@H](C)c3ccc(F)cc3)nc(-c3cnn4ccsc34)n2)CC1` [Example 77, Methyl (1-{[6-{[(1R)-1-(4-fluorophenyl)ethyl]amino}-2-(pyrazolo[5,1-b][1,3]thiazol-7-yl)pyrimidin-4-yl]carbonyl}piperidin-4-yl)carbamate]: the IC50 on JAK3 is > 10000 nM; on JAK1, 980 nM; at JAK2, 3200 nM.
The matching figures for `O=C(NC1CCN(C(=O)c2cc(NCC3CNC3)nc(-c3cnn4ccsc34)n2)CC1)C1CC1` [Example 78, N-[1-({6-[(Azetidin-3-ylmethyl)amino]-2-(pyrazolo[5,1-b][1,3]thiazol-7-yl)pyrimidin-4-yl}carbonyl)piperidin-4-yl]cyclopropanecarboxamide]: > 10000 nM, 4100 nM and > 10000 nM.
The matching figures for `CC(C)C(=O)NC1CCN(C(=O)c2cc(N[C@H](C)c3ccc(F)cc3)nc(-c3cnn4ccsc34)n2)CC1` [Example 79, N-(1-{[6-{[(1R)-1-(4-Fluorophenyl)ethyl]amino}-2-(pyrazolo[5,1-b][1,3]thiazol-7-yl)pyrimidin-4-yl]carbonyl}piperidin-4-yl)-2-methylpropanamide]: > 10000 nM, 870 nM and 3300 nM.
The matching figures for `CCC(C)(C)Nc1cc(C(=O)N2CCC(NC(=O)OC)CC2)nc(-c2cnn3ccsc23)n1` [Example 80, Methyl [1-({6-[(2-methylbutan-2-yl)amino]-2-(pyrazolo[5,1-b][1,3]thiazol-7-yl)pyrimidin-4-yl}carbonyl)piperidin-4-yl]carbamate]: 2300 nM, 110 nM and 820 nM.
Regarding `CCCOC(=O)NC1CCN(C(=O)c2cc(NC(C)(C)C)nc(-c3cnn4ccsc34)n2)CC1` [Example 82, Propyl (1-{[6-(tert-butylamino)-2-(pyrazolo[5,1-b][1,3]thiazol-7-yl)pyrimidin-4-yl]carbonyl}piperidin-4-yl)carbamate], the IC50 was 5800 nM on JAK3, 58 nM at JAK1 and 9700 nM on JAK2.
The matching figures for `CCCOC(=O)NC1CCN(C(=O)c2cc(N[C@H](C)C(C)(C)C)nc(-c3cnn4ccsc34)n2)CC1` [Example 85, Propyl (1-{[6-{[(2R)-3,3-dimethylbutan-2-yl]amino}-2-(pyrazolo[5,1-b][1,3]thiazol-7-yl)pyrimidin-4-yl]carbonyl}piperidin-4-yl)carbamate]: 2300 nM, 330 nM and 2200 nM.
The matching figures for `COCCOC(=O)NC1CCN(C(=O)c2cc(N[C@H](C)C3CC3)nc(-c3cnn4ccsc34)n2)CC1` [Example 88, 2-Methoxyethyl (1-{[6-{[(1R)-1-cyclopropylethyl]amino}-2-(pyrazolo[5,1-b][1,3]thiazol-7-yl)pyrimidin-4-yl]carbonyl}piperidin-4-yl)carbamate]: 4100 nM, 190 nM and 1000 nM.
In the case of `COCCOC(=O)NC1CCN(C(=O)c2cc(N[C@H](C)C(C)(C)C)nc(-c3cnn4ccsc34)n2)CC1` [Example 90, 2-Methoxyethyl (1-{[6-{[(2R)-3,3-dimethylbutan-2-yl]amino}-2-(pyrazolo[5,1-b][1,3]thiazol-7-yl)pyrimidin-4-yl]carbonyl}piperidin-4-yl)carbamate], the figures for the concentration for half-maximal inhibition (IC50) at JAK3, at JAK1 and at JAK2 were 1800 nM, 620 nM and 1200 nM, respectively.
For `COCC(=O)NC1CCN(C(=O)c2cc(N[C@H](C)C(C)(C)C)nc(-c3cnn4ccsc34)n2)CC1` [Example 93, N-(1-{[6-{[(2R)-3,3-Dimethylbutan-2-yl]amino}-2-(pyrazolo[5,1-b][1,3]thiazol-7-yl)pyrimidin-4-yl]carbonyl}piperidin-4-yl)-2-methoxyacetamide], the IC50 on JAK3 was found to be 1000 nM; on JAK1 it was 40 nM; at JAK2, 1200 nM.
The like results for `CC(C)(C)CNc1cc(C(=O)N2CCC(O)CC2)nc(-c2cnn3ccsc23)n1` [Example 94, {6-[(2,2-Dimethylpropyl)amino]-2-(pyrazolo[5,1-b][1,3]thiazol-7-yl)pyrimidin-4-yl}(4-hydroxypiperidin-1-yl)methanone] were, in that order, 5400 nM, 1900 nM and 2200 nM.
As for `C[C@H](Nc1cc(C(=O)N2CCC(NC(=O)OCC(F)F)CC2)nc(-c2cnn3ccsc23)n1)C1CC1` [Example 98, 2,2-Difluoroethyl (l-{[6-{[(1S)-1-cyclopropylethyl]amino}-2-(pyrazolo[5,1-b][1,3]thiazol-7-yl)pyrimidin-4-yl]carbonyl}piperidin-4-yl)carbamate], the IC50 at JAK3 is 1400 nM; on JAK1, 37 nM; at JAK2, 1400 nM.
`C[C@H](Nc1cc(C(=O)N2CCC(NC(=O)OCC(F)F)CC2)nc(-c2cnn3ccsc23)n1)C(C)(C)C` [Example 99, 2,2-Difluoroethyl (1-{[6 {[(2S) 3,3-dimethylbutan-2-yl]amino}-2-(pyrazolo[5,1-b][1,3]thiazol-7-yl)pyrimidin-4-yl]carbonyl}piperidin-4-yl)carbamate]: the IC50 at JAK3 worked out at 2600 nM; on JAK1, 19 nM; on JAK2, 790 nM.
Consider `C[C@@H](Nc1cc(C(=O)N2CCC(NC(=O)OC(C)(C)C)CC2)nc(-c2cnn3ccsc23)n1)C(C)(C)C` [Example 100, tert-Butyl (1-{[6-{[(2R)-3,3-dimethylbutan-2-yl]amino}-2-(pyrazolo[5,1-b][1,3]thiazol-7-yl)pyrimidin-4-yl]carbonyl}piperidin-4-yl)carbamate], for which the IC50 on JAK3 is 3400 nM; at JAK1 it was 140 nM; on JAK2, 3000 nM.
The matching figures for `COCCOC(=O)NC1CCN(C(=O)c2cc(NC(C)(C)C)nc(-c3cnn4ccsc34)n2)CC1` [Example 101]: 3100 nM, 98 nM and 1800 nM.
As to `C[C@@H](Nc1cc(C(=O)N2CCC(NC(=O)OCCN(C)C)CC2)nc(-c2cnn3ccsc23)n1)C(C)(C)C` [Example 102, 2-(Dimethylamino)ethyl (1-{[6-{[(2R)-3,3-dimethylbutan-2-yl]amino}-2-(pyrazolo[5,1-b][1,3]thiazol-7-yl)pyrimidin-4-yl]carbonyl}piperidin-4-yl)carbamate], the IC50 at JAK3 came to 1700 nM; at JAK1, 24 nM; at JAK2 it was 1300 nM.
